The values that follow come from patent publication US11490856B2, “Method and a system for analyzing neuropharmacology of a drug” (City University of Hong Kong, priority 2018, dated 2022).

Read-outs that look alike come from different tables or passages of the source.

The nature of data set [1]: Solubility in water noted when preparing behavioral test concentrations. The format is physicochemical.
Procedure: (§1) The experimental protocol uses a 96-well plate, with one zebrafish larva (5 days post-fertilization) in 90 μL of fish water in each well. 10 μL of a 10× solution of compound in 10% DMSO was added to each well to achieve the final concentration shown in the data, and for a final concentration of 1% DMSO. […] The larvae were pre-treated with compound for four hours, followed by a two minute dark stimulation to ensure fish were not sedated, followed by a 15 minutes period of observation for deviation from the anticipated normal movement/swimming behavior. […] After a 15 minute observation period, the larvae were treated with PTZ to a final concentration of 5 mM, and the number of seizures per larva at each concentration quantified for 15 minutes following PTZ treatment. The DanioVision platform (Noldus) was used to perform the animal behavioral recoding and analysis.
In data set [2] the test system is pentylenetetrazole (PTZ) induced zebrafish seizure model. The conditions noted are these: for seizure count over 15 minutes after PTZ: 5 mM PTZ after 4 hour pre-incubation with compound, n=12, vs DMSO control; for concentration at which seizures were reduced: 5 mM PTZ after 4 hour pre-incubation.
Procedure: In these experiments, with reference to FIG. 38, following a four-hour drug incubation period, zebrafish larvae were pre-monitored for normal movements/swimming behavior for 17 minutes. […] At the 17-minute mark, the larvae were treated with PTZ to a final concentration of 5 mM, and the number of seizures per larva and the average number of seizures at each concentration were quantified for 15 minutes following PTZ exposure.
as §1
For data set [3], the system named is kainic-acid induced seizure model. The conditions noted are these: mice, shown previously; cited from earlier work.
The next data set concerns animal models. The conditions noted are these: previously reported; cited from earlier work.
The next data set deals with PTZ-larvae. Put plainly: Calcium fluctuation traces and T-score BAM of PTZ-treated larval brains. In kind it is in vivo, zebrafish. The conditions noted are these: 5 mM PTZ; 4 hour treatment at 10 μM. From the text:
With reference to FIGS. 39C to 39E, Such pharmacological effects could also be observed in the diametrically opposed BAMS from zebrafish treated in the same manner. NNC-711 is thought to principally act through the inhibition of GABA uptake from the synaptic cleft and glia via inhibition of SLC6A1 (solute carrier family 6 member 1; (GAT1)) leading to increased GABA-ergic neurotransmission.

The test system of data set [4] is rat models of induced epilepsy. The conditions noted are these: literature; cited from earlier work.
The test system of the next data set is zebrafish brain. In words: HT-BAMing whole-brain activity mapping (T-score BAM) by calcium imaging of awake larvae. The conditions noted are these: for change in brain neural activity (T-score BAM pattern): 10 μM dose, 15-minute perfusion, five larvae per compound. In kind it is in vivo. How it is done:
The transgenic zebrafish line elav13:GCaMP5G may be maintained in aquaria under standard laboratory conditions (at 28° C. under a cycle of 14 h light, 10 h dark). Larvae of 6-8 dpf were used in the HT-BAMing experiments.
For example, the imaging process may be performed on a fully automated inverted fluorescent microscope (Olympus IX81) equipped with a cooled sCMOS camera (Neo, ANDOR) with a 10× (NA, 0.4) objective. Micro-manager 1.4 may be installed to control the microscope. For high-resolution, confocal imaging and Leica SP8 microscope with a resonant scanner may be used.
Furthermore, a drug perfusion time may be set in which the two syringes may contain different fluid or solutions such that the changes induced by the drug may be recorded. With reference to FIGS. 8 and 9, to generate the functional BAM of a larva in response to a 15-minute period of chemical perfusion, or “treatment”, each larva was imaged over a 10-minute period before and after treatment.
In the experiments performed by the inventors, all drugs or compounds were dissolved in DMSO as a vehicle as ˜10 mM stock solutions. Treatment of the larvae was performed simply by switching the perfusion solution after immobilizing larvae in the microfluidic chip as shown in FIG. 8. Final concentrations of compounds tested in the primary screen were […].
In one example embodiment, the transformation module 106 is arrange to construct the brain activity maps 110 based on counting neural spikes representing changes of brain activity as detected on the images obtained. With reference to FIGS. 1 and 9, readings from multiple focal planes along the Z-axis (ventral direction) were acquired, and accumulated spike counts were derived from the calcium fluctuations of each Z-plane with a lateral resolution of 15.21 μm^2. The difference in spike-counts between the post- and pre-treatment periods was calculated and projected (by summing up along the Z-axis) to a two-dimensional surface to construct a BAM that reflects changes in brain activity and physiology of an individual larva in response to treatment.
With reference also to FIG. 10, a heat map may be used to intuitively display the activation level of the brain. To map brain activity, every collected frame from calcium imaging may be first meshed into small ROIs, each with a size of 15.21 μm^2. The time series of fluorescence signal in each ROI may then be filtered by a high pass filter to remove the interference from illumination fluctuations. The resulting trace may be used to calculate and visualize the spiking activities. For spike counting, a threshold may be applied to detect spikes from neural activity.
In the experiment, for each compound, the spike count data from five independent zebrafish larvae over a 10-minute period before and a 15-minute period after compound treatment. Before comparison across different samples, all the images were first resized and aligned to a uniform zebrafish brain template with the following process: for each raw image, the dark background was first removed to extract the fluorescent brain region, which was then mapped to the standard template via specific transformative adjustments (e.g. rotation, translation) using the brain center-line as a registration landmark and such that the symmetry with respect to the center-line was maximized in the resulted image. Lastly, the fish eye region was further removed by taking the regions within the template for downstream analysis.
A brain activity map (BAM) A=[aij] was then derived by taking the change (increase or decrease) of spike counts in each ROI before (t0) and after chemical treatment (t1), and summed across multiple layers along the Z-axis:
For each compound, BAMs from five individual larvae were acquired following treatment with a 10 μM dose.

In another data set the test system is dopamine levels. The conditions noted are these: mice, literature; cited from earlier work.

On to `O=c1cc(-c2ccccc2)oc2c(O)c(O)ccc12` [7,8-dihydroxyflavone], for which the solubility entry in data set [1] is listed as “highly insoluble in water”.
In the case of `COc1ccc(CNC(=O)Nc2ncc([N+](=O)[O-])s2)cc1` [AR-A014418], in data set [1] (water / fish water, 1% DMSO), the solubility result is “highly insoluble in water”.
In the case of `CC1=NN=C(c2ccc(N)cc2)c2cc3c(cc2C1)OCO3` [GYKI-52466], the “seizure count over 15 minutes after PTZ” value in data set [2] is given as “confirmed”; in data set [2] (listed as GYKI 54266), “hit compounds”. Besides, the “anticonvulsant activity in kainic-acid induced seizure model” value in data set [3] is “anticonvulsant activity”.
In the case of `Oc1noc2c1CCNC2` [Gaboxadol], in the data set on animal models, the “anti-epileptic activity in animal models” value was “anti-epileptic activity”.
On to `O=C(O)C1=CCCN(CCON=C(c2ccccc2)c2ccccc2)C1` [NNC-711, NNC 711], for which the “seizure activity in larval brain (calcium fluctuation, T-score BAM)” value in the data set on PTZ-larvae is listed as “reduction of seizure activity”. Also, the “concentration at which seizures were reduced” value in data set [2] was 25 µM. In the data set on animal models, the “anti-epileptic activity in animal models” value is “anti-epileptic activity”. The “anticonvulsant efficacy in rat models of induced epilepsy” value in data set [4] was “anticonvulsant efficacy”.
In the case of `OC(CNc1ccccc1)Cn1c2ccc(Br)cc2c2cc(Br)ccc21` (centres unmarked) [P7C3], the solubility entry in data set [1] (water / fish water, 1% DMSO) is recorded as “highly insoluble in water”.
Take `Cc1ncc(CSSCc2cnc(C)c(O)c2CO)c(CO)c1O` [Pyrithioxine]: the “change in brain neural activity (T-score BAM pattern)” value (shortened to “change in brain neural activity”) in the data set on zebrafish brain is given as “increased activity brain-wide”. Moreover, the “change of action potential firing rate in selected neuronal cells from a zebrafish brain” value in the data set with zebrafish brain (FIG. 9, after drug treatment) is given as “excitation”.
Take `Cl.O=C(O)C1CCCN(CCC=C(c2ccccc2)c2ccccc2)C1` (centres unmarked) [SKF89976A, SKF 89976A]: the “anti-epileptic activity in animal models” value in the data set with animal models is listed as “anti-epileptic activity”.
Consider `OCCCCC#Cc1cncc(OC[C@@H]2CCN2)c1` [Sazetidine], for which the “seizure count over 15 minutes after PTZ” value in data set [2] is recorded as “hit compounds”.
The same measure, in the same setting: the entry for `CNC(=O)[C@@H](Cc1ccccc1)N(C)C(=O)[C@@H](Cc1ccc2ccccc2c1)N(C)C(=O)/C=C/CC(C)(C)N` [Tabimorelin] is “hit compounds”.
As for `CN1CCc2c(c3ccccc3n2Cc2ccc(C(=O)NO)cc2)C1` [Tubastatin A], in data set [2], the “concentration at which seizures were reduced” value was determined as 500 µM and the “seizure count over 15 minutes after PTZ” value is “hit compounds”. Besides, in data set [2] (listed as Tubastatin-A), the “seizure count over 15 minutes after PTZ” value was “reduced seizure count”.
As to `COc1ccc(/C=C/c2cc(OC)cc(=O)o2)cc1` [Yangonin], the solubility entry in data set [1] is reported as “highly insoluble in water”. For the same compound, the “seizure count over 15 minutes after PTZ” value in data set [2] is recorded as “hit compounds”.
As for `COc1ccc2cc3[n+](cc2c1OC)CCc1cc2c(cc1-3)OCO2` [berberine, Berberine], the “effect on dopamine levels” value with dopamine levels was “increase dopamine levels”.
For the compound `NC(=O)N1c2ccccc2C=Cc2ccccc21` [carbamazepine, Carbamazepine], the “change in brain neural activity” value in the data set on zebrafish brain is “inhibition of activity across almost the entire brain”.
Turning to `CCC1(C)CC(=O)NC1=O` (centres unmarked) [ethosuximide, Ethosuximide], in the data set with zebrafish brain, the “change in brain neural activity” value is recorded as “inhibition of activity across almost the entire brain”.
On the same count and under the same terms, the entry for `Nc1nnc(-c2cccc(Cl)c2Cl)c(N)n1` [lamotrigine, Lamotrigine] is “inhibition of activity across almost the entire brain”; for `CC[C@@H](C(N)=O)N1CCCC1=O` [levetiracetam, Levetiracetam] it is “inhibition of activity across almost the entire brain”.
The same measure, in the same setting: the entry for `NC(=O)N1c2ccccc2CC(=O)c2ccccc21` [oxcarbazepine] is “inhibition of activity across almost the entire brain”; for `N#Cc1ccccc1-c1cc(-c2ccccn2)cn(-c2ccccc2)c1=O` [perampanel, Perampanel] it is “inhibition of activity across almost the entire brain”; for `NC(=O)CCC/N=C(\c1ccc(Cl)cc1)c1cc(F)ccc1O` [progabide, Progabide] it is “inhibition of activity across almost the entire brain”.
Regarding `COc1cccc([C@H](O)C2CCN(CCc3ccc(F)cc3)CC2)c1OC` [volinanserin], in data set [1], the solubility entry is listed as “highly insoluble in water”. Also, the figures for the “seizure count over 15 minutes after PTZ” value in data set [2] and in data set [2] (listed as Volinanerin) were “reduced seizures” and “hit compounds”, respectively.
